Test results taken from paper PMC8963105, “A Novel Modulator of the Renin–Angiotensin System, Benzoylaconitine, Attenuates Hypertension by Targeting ACE/ACE2 in Enhancing Vasodilation and Alleviating Vascular Inflammation” (Frontiers in Pharmacology, 2022).

Columns and labels:
[1] = system: HUVECs; test: CCK-8 cell viability (drug cytotoxicity) in HUVECs; assay type: cell-based, human; conditions: dose lower than 100 μM, 48 h
Source text: Human umbilical vein endothelial cells (HUVECs) were isolated from umbilical cords as previously described ([Jaffe et al., 1973]). They were purchased from ATCC (cat# CRL-1444, Manassas, VA, United States) and cultured in endothelial cell medium (ECM, ScienCell, Carlsbad, CA, United States) supplemented with 5% FBS, 1% endothelial cell growth supplement, and 1% antibiotics (Sigma, St. Louis, MO, United States). Cells harvested between the third and tenth passages were used in the experiments. Cells were cultured until they were ∼80% confluent. After pre-starving in a quiescing ECM supplemented with 1% FBS and 1% antibiotics for 24 h, the cells were treated using different concentrations of BAC (Control, DMSO, 25, 50, and 100 μM, dissolved in 0.1% DMSO–DMEM) with or without MG132, an inhibitor of proteasome, at 20 nM or 40 nM for 24 h. Then, cell samples were collected for Western blot analysis or immunofluorescence staining.
The potential of cells to maintain or recover viability after treatment with each agent was determined. Cell viability can be distinguished from the all-or-nothing states of life and death using a quantifiable index between 0 and 1 (or 0 and 100%). Cell viability was measured by a Cell Counting Kit-8 (CCK-8) Assay Kit (EnoGene, Nanjing, China). […] After 1 h of incubation, the absorbance was measured at 450 nm using a microplate reader (Thermo Fisher Scientific). […]

[2] = system: TNF-α; test: serum TNF-α by ELISA in SHRs; assay type: in vivo, rat; conditions: oral 14 days
Source text: (§1) All three MDAs (BAC, BMC, and BHC) were purchased from Nature-Standard Co., Ltd. (Shanghai, China) and their purities were all over 98%. The anti-hypertensive effects of MDAs were studied in both acute and chronic experiments. The 16-week-old SHRs were used in animal experiments, and each group had six rats. In the acute experiment, drug administration was via i.v. injection. For i.v. injection, the animals were randomly assigned into four groups: vehicle (0.1% DMSO–0.9% salt solution, n = 6), low-dose group (0.6 mg kg^−1 body weight, n = 6), medium-dose group (2 mg kg^−1 body weight, n = 6), and high-dose group (6 mg kg^−1 body weight, n = 6). The drug was administered using a venous catheter. […] Blood pressure was recorded in real time.
Blood samples were collected from the left femoral artery of rats at the end point, followed by centrifugation at 1,000 × g for 15 min at 4°C. […] The concentrations of circulating ACE, ACE2, Ang I, Ang II, Ang (1–7), TNF-α, and IL-6 in serum were measured using the ELISA kits [ACE, cat#xy-R2401c, X-Y Biotechnology, Shanghai, China; ACE2, cat#xy-ACE2-Ra, X-Y Biotechnology; Ang I, cat#xy-E12541, X-Y Biotechnology; Ang II, cat#xy-R1430c, X-Y Biotechnology; Ang (1–7), cat#xy-Ang1-7-Ra, X-Y Biotechnology; TNF-α, cat#GM1149, Servicebio, Shanghai, China; IL-6, cat#GM1154, Servicebio] according to the manufacturer’s instructions. […]

[3] = system: ACE2; test: ACE2 protein expression in HUVECs (Western blot, immunofluorescence); assay type: cell-based, human; conditions: HUVECs, 25, 50, 100 μM, 24 h
Source text: Human umbilical vein endothelial cells (HUVECs) were isolated from umbilical cords as previously described ([Jaffe et al., 1973]). They were purchased from ATCC (cat# CRL-1444, Manassas, VA, United States) and cultured in endothelial cell medium (ECM, ScienCell, Carlsbad, CA, United States) supplemented with 5% FBS, 1% endothelial cell growth supplement, and 1% antibiotics (Sigma, St. Louis, MO, United States). Cells harvested between the third and tenth passages were used in the experiments. Cells were cultured until they were ∼80% confluent. […]
After treatment with different concentrations of BAC (Control, DMSO, 25, 50, and 100 μM, dissolved in 0.1% DMSO–DMEM) for 24 h, the cells were washed with PBS three times, fixed in 4% paraformaldehyde for 20 min, permeabilized with 0.3% Triton X-100 for 20 min, and then blocked with 5% BSA for 30 min at room temperature of 25°C. […] The samples were analyzed using a confocal laser scanning microscope (Zeiss LSM 510 META, Oberkochen, Germany).
(§2) The cell samples and tissue sample were collected and placed in ice rapidly. […] Protein concentration in cell lysates was measured using a Bio-Rad DC Protein Assay Kit […]. […]

[4] = system: p-eNOS^Ser1177; test: p-eNOS Ser1177 in aorta of SHRs (Western blot); assay type: in vivo, rat; conditions: vessel of SHRs, oral 14 days
Source text: as §1, with “catheter. In chronic experiments, the animals were randomly assigned into five groups: vehicle (5% Tween 80–0.9% salt solution, n = 6), captopril group (5 mg kg^−1 body weight, n = 6), low-dose group (3 mg kg^−1 body weight, n = 6), medium-dose group (10 mg kg^−1 body weight, n = 6), and high-dose group (30 mg kg^−1 body weight, n = 6). Oral administration with drug or 5% Tween 80–0.9% salt solution was carried out once a day, and continued for 14 days.” for “catheter.”
as §2

CCN1CC2(COC)C(O)CC(OC)C34C5CC6(O)C(OC)C(O)C(O)(C5C6OC(=O)c5ccccc5)C(C(OC)C23)C14 (stereo not shown) [BAC, Benzoylaconitine]
cell viability (toxicity on HUVECs) [1]: no significant effect
level of TNF-α in serum [2]: reduced
protein expression of ACE2 [3]: does not affect
p-eNOS^Ser1177 [4]: activated
